What was measured:
[1] = test system: trichoid sensillum housed odor receptor, which is also activated by DEET; conditions: compared with DEET; cited from earlier work
Aedes aegypti [2] = assay: protection time assay for mosquito repellency; assay type: in vivo; conditions: standardized to 25 μmol/cm^2; assigned, not measured
Procedure: In two recent studies, 34 N-acylpiperdine and 38 carboxamide mosquito repellent candidates were synthesized and compared for their effectiveness. […] The mode of repellency for all of these compounds is unknown. As the N-acylpiperdines and some of the carboxamides are larger and likely have a lower vapor pressure than DEET, it is possible that the increased protection times of these compounds is due to a slower evaporation rate.
As these odors were tested using different approaches, a single unit of measure was needed to standardize them for training. Since the largest proportion of odors was measured in protection time, all odors were converted into this single standard of protection time in days to match with the Katritzky data at a concentration of 25 μmol/cm^2. Picaridin, which is believed to have a similar protection to DEET, was given the same protection time as DEET (17.5 days). […] While this is a very rough approximation, it is sufficiently accurate for training.

Aedes aegypti [3] = conditions: 25 μmol/cm^2, Katritzky data; cited from earlier work
acetylcholoinesterase = acetylcholoinesterase (Homo sapiens, UniProt P22303); conditions: in humans, recent study; cited from earlier work
acetylcholoinesterase, sequence (P22303 32-614): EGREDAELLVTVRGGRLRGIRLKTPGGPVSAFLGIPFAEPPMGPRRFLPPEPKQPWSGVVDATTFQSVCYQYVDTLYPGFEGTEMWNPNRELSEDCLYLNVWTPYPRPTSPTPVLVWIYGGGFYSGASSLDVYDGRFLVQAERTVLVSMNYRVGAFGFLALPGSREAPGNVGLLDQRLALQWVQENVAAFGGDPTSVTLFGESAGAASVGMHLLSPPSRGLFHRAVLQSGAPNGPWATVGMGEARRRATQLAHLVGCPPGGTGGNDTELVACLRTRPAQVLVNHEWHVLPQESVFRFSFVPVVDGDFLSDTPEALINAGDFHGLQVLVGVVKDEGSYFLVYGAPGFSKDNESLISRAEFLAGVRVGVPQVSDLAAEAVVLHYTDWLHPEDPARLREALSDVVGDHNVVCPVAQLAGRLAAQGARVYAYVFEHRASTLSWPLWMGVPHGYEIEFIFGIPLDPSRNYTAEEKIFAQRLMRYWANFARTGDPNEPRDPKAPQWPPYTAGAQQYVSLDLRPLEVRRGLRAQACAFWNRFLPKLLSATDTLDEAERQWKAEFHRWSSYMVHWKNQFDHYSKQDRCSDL

[4] = in vivo; cited from earlier work
insects = conditions: in vivo; cited from earlier work

Row | Compound | activation of DEET-activated odor receptor / DEET receptive neuron [1] | protection time given for training (same as DEET, very rough approximation) (Aedes aegypti [2]) [days] | other results
1 | CC12CCC(CC1)C(C)(C)O2 [Eucalyptol] | more strongly than DEET | 17.5 | 
2 | C=CC(C)(O)CCC=C(C)C (stereo not shown) [linalool] | more strongly than DEET | 17.5 | 
3 | CC(C)[C@]12CC(=O)[C@H](C)[C@H]1C2 [thujone] | more strongly than DEET |  | 
4 | CCN(CC)C(=O)c1cccc(C)c1 [DEET, N,N-diethyl-3-methylbenzamide] |  |  | protection time (Aedes aegypti [3]): 17.5 days; inhibition of acetylcholinesterase (acetylcholoinesterase): inhibit; irritation [4]: act as an irritant
5 | CC1C(=O)CC2(C(C)C)CC12 (stereo not drawn) [beta-thujone] |  | 17.5 | 
6 | CCC(C)OC(=O)N1CCCCC1CCO (stereo not shown) [Icaridin] |  | 17.5 | effectiveness at repelling insects compared with DEET (insects): as effective as DEET; irritation [4]: less irritating than DEET
7 | CC(C)[C@]12CC(=O)[C@H](C)[C@H]1C2 [alpha-thujone] |  | 17.5 | 

— patent publication US10292396B2, “Methods for assessing repellant quality of organic materials and methods and compositions for repelling arthropods” (priority 2011, dated 2019)
